{
  "source": "ChEMBL document CHEMBL1127384",
  "about": "“Design, synthesis, and conformational analysis of a novel macrocyclic HIV-protease inhibitor” (J Med Chem, 1994)",
  "target": "Human immunodeficiency virus type 1 protease (Human immunodeficiency virus 1, UniProt Q72874)",
  "experiment": "In vitro ability to inhibit HIV-protease.",
  "data": [
    {"smiles": "CC(C)[C@@H]1NC(=O)CNC(=O)COc2ccc(cc2)C[C@@H](C(=O)C(F)(F)C(=O)NCc2ccccc2)NC1=O", "values": [
      {"measurement": "Ki", "value": 20, "unit": "nM"}
    ]},
    {"smiles": "CC(C)[C@H](NC(=O)OCc1ccccc1)C(=O)N[C@@H](Cc1ccc(OCc2ccccc2)cc1)C(=O)C(F)(F)C(=O)NCc1ccccc1", "values": [
      {"measurement": "Ki", "value": 5, "unit": "nM"}
    ]}
  ]
}
